From patent US9951389B2, “Diagnostic markers for treating cell proliferative disorders with telomerase inhibitors” (Geron Corporation, priority 2012, dated 2018)
Where two headings read alike, the source gives them in different places. [nps] = N3'→P5' thiophosphoramidate linkage

Key:
[1] = test system: animal tumor models, including ovarian and lung, both small cell and non-small cell; settings: cited from earlier work
[2] = test system: epidermoid carcinoma, breast epithelium, renal carcinoma, renal adenocarcinoma, pancreatic, brain, colon, prostate, leukemia, lymphoma, myeloma, epidermal …; settings: administered alone, in vitro; cited from earlier work
[3] = test system: advanced stage non-small cell lung cancer; assay: Imetelstat NSC Lung Cancer Phase II (CP14B-012) Study, progression-free survival analysis by tumor telomere length subgroup; assay type: in vivo, human; settings: for responsiveness (progression-free survival) of patients with short telomeres vs medium-long telomeres: telomere length subgroups by qPCR
From the text: The purpose of the NSC Phase II (CP14B-012) Study was to evaluate the efficacy and safety of imetelstat (GRN163L) as maintenance therapy for patients with advanced stage non-small cell lung cancer who have not progressed after 4 cycles of platinum based therapy. Participants were randomized in a 2:1 ratio to imetelstat plus standard of care versus standard of care alone. Participants who received bevacizumab with their induction chemotherapy continued to receive bevacizumab in this study.
The primary outcome measures were progression-free survival, defined as the time from randomization to documented disease progression or death, whichever occurred earlier, as determined by the investigator's assessment according to RECIST (Response Evaluation Criteria in Solid Tumors). The secondary outcome measures were objective response, time to all-cause mortality, and safety and tolerability (assessed by the incidence, nature, and severity of adverse events, laboratory abnormalities, and vital signs.
The patients were divided into two arms. In the experimental arm, patients received Imetelstat plus the standard of care (Bevacizumab or observation). Specifically, 9.4 mg/kg of Imetelstat (GRN163L) was given to patients over a 2 hour IV infusion on Day 1 and Day 8 of each 21 day cycle until disease progression. If administered, Bevacizumab was given on Day 1 of each 21-day cycle, with dosage and duration according to the FDA-approved Bevacizumab package insert.
In the control arm, patients received Bevacizumab or observation. If administered, Bevacizumab was given on Day 1 of each 21-day cycle, with dosage and duration according to the FDA-approved Bevacizumab package insert.
Samples were obtained from 61 of the 116 patients enrolled in the NSC Phase II (CP14B-012) Study described above. […] Each assay produced data for between 7 and 14545 foci from six regions (‘fields’) on a slide. The area and fluorescent intensity were recorded for each of the foci.
The IN Cell developer Toolbox 1.9 (GE Corp.) was utilized to quantitate the average telomere length from cells obtained from biological samples and subjected to telo-FISH. This software was used to draw lines around cell nuclei based on the location of the DAPI stain, and around cell telomeres based on the location of the telomere-specific fluorescence. Once each nucleus and telomere was encircled, the software calculated the intensity and the area of each individual telomere in the cells and determined the average telomere length for the cells derived from the biological sample according to Equation 1: 1.376×log2(intensity)−6.215×√(area) [Equation 1]. Results
This Example followed all of the procedures of Example 2 with the following changes to the qPCR protocol.

Row | Substance | therapeutic efficacy in animal tumor models [1] | inhibitory activity in cell culture [2] | progression-free survival hazard ratio (95% CI) [3] | progression-free survival hazard ratio (95% CI) ([3]; Telo-FISH quartile split, small intensity/area (15/59, 25.4%), Example 3, Imetelstat vs control) | progression-free survival median (95% CI) ([3]; Telo-FISH quartile split, small intensity/area (15/59, 25.4%, shortest telomeres), Example 3, Imetelstat arm) | progression-free survival median (95% CI) ([3]; medium-long telomere subgroup (34 of 52 samples, 65%), second qPCR protocol of Example 4, Imetelstat arm) | progression-free survival median (95% CI) ([3]; medium-long telomere subgroup (38 of 57 samples, 67%), qPCR of Example 2, Imetelstat arm) | progression-free survival hazard ratio (95% CI) ([3]; medium-long telomere subgroup (65%), second qPCR protocol of Example 4, Imetelstat vs control) | progression-free survival events/N ([3]; medium-long telomere subgroup (67%), qPCR of Example 2, Imetelstat arm) | progression-free survival median (95% CI) ([3]; short telomere subgroup (18 of 52 samples, 35%), second qPCR protocol of Example 4, Imetelstat arm) | progression-free survival median (95% CI) ([3]; short telomere subgroup (19 of 57 samples, 33%), qPCR of Example 2, Imetelstat 9.4 mg/kg IV Day 1 and 8 of 21 day cycle plus standard of care) | progression-free survival events/N ([3]; short telomere subgroup (33%), qPCR of Example 2, Imetelstat arm) | progression-free survival hazard ratio (95% CI) ([3]; short telomere subgroup (33%), qPCR of Example 2, Imetelstat vs control arm) | progression-free survival hazard ratio (95% CI) ([3]; short telomere subgroup (35%), second qPCR protocol of Example 4, Imetelstat vs control) | responsiveness (progression-free survival) of patients with short telomeres vs medium-long telomeres ([3]; Example 2) | responsiveness (progression-free survival) of patients with short telomeres vs medium-long telomeres ([3]; Example 4)
1 | GRN163: oligonucleotide having sequence TAGGGTTAGACAA (SEQ ID NO:3) and N3′→P5′ thiophosphoramidate (NPS) linkages (all [nps], sugars by position and methylation of C not given here) | therapeutically effective | has shown inhibitory activity |  |  |  |  |  |  |  |  |  |  |  |  |  | 
2 | Imetelstat |  |  | 0.83 (0.36, 1.89) | 0.26 (0.06, 1.1) | 4.7 (1.41, NA) | 3.03 (1.58, 4.47) | 2.8 (1.51, 4.18) | 0.65 (0.27, 1.56) | 21/26 | 1.91 (1.22, NA) | 4.05 (1.25, NA) | 8/11 | 0.32 (0.1, 1.02) | 0.55 (0.17, 1.84) | significantly more responsive compared to controls | significantly more responsive compared to controls
